pEC50: −log10 of the molar value.
How the values were obtained:
human M2 receptor = human M2 receptor (Homo sapiens (Human), UniProt P08172); test: In vitro M2 functional assay (intracellular calcium, FLiPR Tetra); format: cell-based; conditions: for M2 EC50 / pEC50: CHOK1 cells stably expressing human M2 receptor and Gα16, calcium flux, No Response = no significant response of calcium flux indicative of agonism; for activation at 10 µM: response at 10 μM compound, relative to an EC100 concentration of acetylcholine, read-out: M2 % RE @ 10 μM; for M2 % RE: relative efficacy to an EC100 concentration of acetylcholine
Sequence of human M2 receptor (P08172 whole entry): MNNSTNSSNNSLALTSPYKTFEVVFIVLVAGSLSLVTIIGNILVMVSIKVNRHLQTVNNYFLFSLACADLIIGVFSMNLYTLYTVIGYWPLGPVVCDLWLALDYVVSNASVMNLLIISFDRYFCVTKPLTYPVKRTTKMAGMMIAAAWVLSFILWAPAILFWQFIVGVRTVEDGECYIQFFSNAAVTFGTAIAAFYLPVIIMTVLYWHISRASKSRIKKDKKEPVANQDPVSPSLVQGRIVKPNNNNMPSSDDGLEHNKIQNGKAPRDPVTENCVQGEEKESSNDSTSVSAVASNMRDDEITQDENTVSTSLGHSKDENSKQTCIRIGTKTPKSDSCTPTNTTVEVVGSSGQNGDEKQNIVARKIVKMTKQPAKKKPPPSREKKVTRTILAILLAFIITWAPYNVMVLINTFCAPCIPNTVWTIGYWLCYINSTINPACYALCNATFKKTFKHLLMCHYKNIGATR
Protocol: (§1) In Vitro M4 &M2 Functional Assay
(§2) The functional activity of compounds at the M4 and M2 receptors was determined by measuring changes in the level of intracellular calcium ions caused by signalling cascades mediated by the receptor. Intracellular Calcium levels were measured using a calcium sensitive fluorescent dye, calcium 5 (Molecular Devices) The changes in fluorescence were monitored by a fluorescent imager, FLiPR Tetra (Molecular devices). Increases in intracellular calcium were readily detected upon activation of both receptors by the muscarinic receptor agonist Acetylcholine.
(§3) CHOK1 cells stably expressing human M4 or M2 receptor and co-expressing the accessory g-protein Gα16 were routinely grown as monolayers in Hams-F12 medium (Invitrogen) supplemented with 10% foetal bovine serum (FBS) (Hyclone), 500 ug/mL Geneticin and 250 ug/mL zeocin (both invitrogen) in 5% CO2 at 37° C. Once confluent is cells cryopreserved by freezing at −186° C. in freezing solution (90% FBS 10% DMSO) (Sigma-Aldrich Co.). Twenty-four hours prior to testing cells resuscitated and freezing media removed via centrifugation, cells then seeded in a black walled clear bottom 384 well plates (Corning) at a density of 15,000 cells/well in Hams F12 media supplemented with 10% FBS. On the day of assay, growth media was removed and replaced with 63 μl of Calcium 5 dye solution (Molecular Devices) in assay buffer (HBSS, 20 mM HEPES, 0.1% BSA, 1 mM Probenecid pH7.4 (Sigma-Aldrich Co.)) per well (each vial of Calcium 5 resuspended in 27 mL of assay buffer). Cells were then incubated for 45 minutes at 37° C., 5% CO2. Compound was serially diluted in DMSO (log/half log) before being diluted 1:20 with assay buffer. 7 μl of compound diluted in assay buffer was then added to cells on FLiPR tetra and fluorescence intensity measured for 5 minutes. EC50 values for compounds were determined from ten point half log scale dose-response studies and represent the concentration of compound required to […] maximal response. Curves were generated using the average of duplicate wells for each data point and analyzed using non-linear regression of four parameter dose response. Percentage Relative efficacy (RE) to an EC100 concentration of acetylcholine was reported for all compounds. The results are set out in Table 3 below in which the term “No Response” means that there was no significant response of calcium flux in the assay indicative of agonism.

human M4 receptor = human M4 receptor (Homo sapiens (Human), UniProt P08173); test: In vitro M4 functional assay (intracellular calcium, FLiPR Tetra); format: cell-based; conditions: for Emax: relative efficacy to an EC100 concentration of acetylcholine, read-out: M4 % RE
Sequence of human M4 receptor (P08173 whole entry): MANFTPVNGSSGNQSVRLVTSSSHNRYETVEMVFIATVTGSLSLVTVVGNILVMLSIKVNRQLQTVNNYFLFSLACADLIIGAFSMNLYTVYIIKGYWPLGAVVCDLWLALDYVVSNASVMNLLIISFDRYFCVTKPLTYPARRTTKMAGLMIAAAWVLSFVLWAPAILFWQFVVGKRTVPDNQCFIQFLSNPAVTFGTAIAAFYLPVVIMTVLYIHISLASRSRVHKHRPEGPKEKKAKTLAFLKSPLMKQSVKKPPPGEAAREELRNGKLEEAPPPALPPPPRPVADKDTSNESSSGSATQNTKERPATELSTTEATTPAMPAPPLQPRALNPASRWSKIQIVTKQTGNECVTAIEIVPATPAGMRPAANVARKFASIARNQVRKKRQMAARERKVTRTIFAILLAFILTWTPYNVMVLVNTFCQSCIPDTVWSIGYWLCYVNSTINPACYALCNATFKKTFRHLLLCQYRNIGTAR
Protocol: as §1, §2, §3

[1] = CHOK1 cells stably expressing human M4 receptor and Gα16, calcium flux

M2 EC50 (human M2 receptor)	pEC50 (human M4 receptor; [1])	Emax (human M4 receptor) [%]	pEC50 (human M2 receptor)	activation at 10 µM (human M2 receptor) [%]	M2 % RE (human M2 receptor) [%]	M4 EC50 (human M4 receptor; [1])	SMILES
No Response	5.86	45					CCOC(=O)N1CCCC(N2CCC(n3nccc3C(=O)NCC3CC3)CC2)CC1 (stereo not shown) [Example 24, Ethyl 4-(4-{5-[(cyclopropylmethyl)carbamoyl]-1H-pyrazol-1-yl}piperidin-1-yl)azepane-1-carboxylate]
No Response	6.25	43					CCOC(=O)N1CCCC(N2CCC(c3nc(C)ncc3OC)CC2)CC1 (stereo not shown) [Example 63, Ethyl 4-[4-(5-methoxy-2-methylpyrimidin-4-yl)piperidin-1-yl]azepane-1-carboxylate]
No Response	7.70	82					CCOC(=O)N1CCCC(N2CCC(c3cc(C)cnc3OCC)CC2)CC1 (stereo not shown) [Example 42, Ethyl 4-[4-(2-ethoxy-5-methylpyridin-3-yl)piperidin-1-yl]azepane-1-carboxylate]
No Response	6.27	45					CCOC(=O)N1CCC(N2CCC(c3nccs3)CC2)CC1 [Example 68, Ethyl 4-[4-(1,3-thiazol-2-yl)piperidin-1-yl]piperidine-1-carboxylate]
	6.60	49	< 5.00	25			CCOC(=O)N1CCCC(N2CCC(n3nccc3-c3ccc(Cl)cc3)CC2)CC1 (stereo not shown) [Example 5, Ethyl 4-{4-[5-(4-chlorophenyl)-1H-pyrazol-1-yl]piperidin-1-yl}azepane-1-carboxylate]
No Response	7.52	102					CCOC(=O)N1CCCC(N2CCC(c3cccnc3OC)CC2)CC1 (stereo not shown) [Example 35, Ethyl 4-[4-(2-methoxypyridin-3-yl)piperidin-1-yl]azepane-1-carboxylate]
No Response	5.78	27					CCOC(=O)N1CCCC(N2CCC(c3ccncc3)CC2)CC1 (stereo not shown) [Example 30, Ethyl 4-[4-(pyridin-4-yl)piperidin-1-yl]azepane-1-carboxylate]
No Response	6.12	55					CCOC(=O)N1CCCC(N2CCC(c3ccnn3C)CC2)CC1 (stereo not shown) [Example 14, Ethyl 4-[4-(1-methyl-1H-pyrazol-5-yl)piperidin-1-yl]azepane-1-carboxylate]
	8.00	96	< 5.00	25			CCOC(=O)N1CCCC(N2CCC(c3cccnc3OC(F)F)CC2)CC1 (stereo not shown) [Example 52, Ethyl 4-{4-[2-(difluoromethoxy)pyridin-3-yl]piperidin-1-yl}azepane-1-carboxylate]
No Response	6.19	53					CCOC(=O)N1CCCC(N2CCC(c3cccnc3-c3cnn(C)c3)CC2)CC1 (stereo not shown) [Example 73, Ethyl 4-{4-[2-(1-methyl-1H-pyrazol-4-yl)pyridin-3-yl]piperidin-1-yl}azepane-1-carboxylate]
No response	6.51	67					CCOC(=O)N1CCC[C@@H](N2CCC(c3cccnc3OC)CC2)CC1 [Example 86, Ethyl (4R)-4-[4-(2-methoxypyridin-3-yl)piperidin-1-yl]azepane-1-carboxylate]
No Response	7.70	94					CCOC(=O)N1CCCC(N2CCC(c3cccnc3OCc3cc(C)no3)CC2)CC1 (stereo not shown) [Example 54, Ethyl 4-(4-{2-[(3-methyl-1,2-oxazol-5-yl)methoxy]pyridin-3-yl}piperidin-1-yl)azepane-1-carboxylate]
No Response	6.89	51					CCOC(=O)N1CCCC(N2CCC(c3nccs3)CC2)CC1 (stereo not shown) [Example 26, Ethyl 4-[4-(1,3-thiazol-2-yl)piperidin-1-yl]azepane-1-carboxylate]
No Response	6.80	72					CCOC(=O)N1CCC(N2CCC(c3cc(C)cnc3OCC)CC2)CC1 [Example 47, Ethyl 4-[4-(2-ethoxy-5-methylpyridin-3-yl)piperidin-1-yl]piperidine-1-carboxylate]
No Response	6.60	63					CCOC(=O)N1CCCC(N2CCC(c3cnccc3OC)CC2)CC1 (stereo not shown) [Example 48, Ethyl 4-[4-(4-methoxypyridin-3-yl)piperidin-1-yl]azepane-1-carboxylate]
No Response	6.74	68					CCOC(=O)N1CCCC(N2CCC(c3nc(C(F)(F)F)ncc3OC)CC2)CC1 (stereo not shown) [Example 60, Ethyl 4-{4-[5-methoxy-2-(trifluoromethyl)pyrimidin-4-yl]piperidin-1-yl}azepane-1-carboxylate]
No Response	6.07	43					CCOC(=O)N1CCCC(N2CCC(c3cccnc3-c3ncco3)CC2)CC1 (stereo not shown) [Example 80, Ethyl 4-{4-[2-(1,3-oxazol-2-yl)pyridin-3-yl]piperidin-1-yl}azepane-1-carboxylate]
No Response	6.02	41					CCCn1ccnc1C1CCN(C2CCCN(C(=O)OCC)CC2)CC1 (stereo not shown) [Example 11, Ethyl 4-[4-(1-propyl-1H-imidazol-2-yl)piperidin-1-yl]azepane-1-carboxylate]
	6.70	68	6.17		38		CCOC(=O)N1CCCC(N2CCC(n3nccc3-c3cnn(C(C)C)c3)CC2)CC1 (stereo not shown) [Example 22, Ethyl 4-(4-{5-[1-(propan-2-yl)-1H-pyrazol-4-yl]-1H-pyrazol-1-yl}piperidin-1-yl)azepane-1-carboxylate]
No Response	6.05	37					CCOC(=O)N1CCCC(N2CCC(c3cccn(CC)c3=O)CC2)CC1 (stereo not shown) [Example 57, Ethyl 4-[4-(1-ethyl-2-oxo-1,2-dihydropyridin-3-yl)piperidin-1-yl]azepane-1-carboxylate]
No Response	6.00	37					CCOC(=O)N1CCCC(N2CCC(c3cccnc3NCC3CC3)CC2)CC1 (stereo not shown) [Example 67, Ethyl 4-(4-{2-[(cyclopropylmethyl)amino]pyridin-3-yl}piperidin-1-yl)azepane-1-carboxylate]
No Response	6.17	58					CCOC(=O)N1CCCC(N2CCC(c3cccnc3CC(C)C)CC2)CC1 (stereo not shown) [Example 77, Ethyl 4-{4-[2-(2-methylpropyl)pyridin-3-yl]piperidin-1-yl}azepane-1-carboxylate]
	6.48	59	5.81		38		CCOC(=O)N1CCCC(N2CCC(n3cccc3)CC2)CC1 (stereo not shown) [Example 3, Ethyl 4-[4-(1H-pyrrol-1-yl)piperidin-1yl]azepane-1-carboxylate]
No Response	6.44	53					CCOC(=O)N1CCCC(N2CCC(c3cccnc3NC)CC2)CC1 (stereo not shown) [Example 62, Ethyl 4-{4-[2-(methylamino)pyridin-3-yl]piperidin-1-yl}azepane-1-carboxylate]
No Response	6.66	73					CCOC(=O)N1CCC(N2CCC(c3cccc(OC)n3)CC2)CC1 [Example 32, Ethyl 4-[4-(6-methoxypyridin-2-yl)piperidin-1-yl]piperidine-1-carboxylate]
No Response	6.92	84					CCOC(=O)N1CCCC(N2CCC(c3cccnc3C3CC3)CC2)CC1 (stereo not shown) [Example 66, Ethyl 4-[4-(2-cyclopropylpyridin-3-yl)piperidin-1-yl]azepane-1-carboxylate]
No Response	6.72	53					CCOC(=O)N1CCCC(N2CCC(c3cc[nH]n3)CC2)CC1 (stereo not shown) [Example 6, Ethyl 4-[4-(1H-pyrazol-3-yl)piperidin-1yl]azepane-1-carboxylate]
	6.34	80					CCOC(=O)N1CCC[C@@H](N2CCC(n3cccn3)CC2)CC1 [Example 82, Ethyl (4R)-4-[4-(1H-pyrazol-1-yl)piperidin-1-yl]azepane-1-carboxylate]
						No response	CCOC(=O)N1CCC[C@@H](N2CCC(c3nccn3C)CC2)CC1 [Example 84, Ethyl (4R)-4-[4-(1-methyl-1H-imidazol-2-yl)piperidin-1-yl]azepane-1-carboxylate]
